{"source": "paper PMC12596568", "about": "“Retention of a SulP-family bicarbonate transporter in a periplasmic N2-fixing cyanobacterial endosymbiont of an open ocean diatom” (The ISME Journal, 2025)", "system": "RintRC_3892", "conditions": "read-out: K0.5; 20 mM TES-KOH pH 8, 30-33 mM NaCl (Na+-dependent), 30°C, light; labelled compound; n = 5; actual K0.5 might be somewhat higher because of non-labelled bicarbonate"}
{"compound": "O=C(O)O", "note": "[bicarbonate]", "values": [{"measurement": "Km", "result": "~464", "unit": "µM"}]}
